{"source": "patent US20190177440A1", "about": "“COMPOUND OR SALT THEREOF, ANTI-INFLAMMATORY AGENT, ANTI-CANCER AGENT AGAINST LUNG CANCER, METHOD OF PRODUCING COMPOUND OR SALTS THEREOF, METHOD OF TREATING INFLAMMATORY DISEASES AND METHOD OF TREATING LUNG CANCER” (TFK CO., LTD., priority 2016, published 2019)", "key": {"IL-6": {"tested_on": "IL-6", "test": "IL-6 production in THP-1 cells stimulated with LPSp, with or without PPARγ inhibitor GW9662 (Example 8-1)", "type": "cell-based, human", "conditions": "final 100, 1,000 and 10,000 ng/mL, LPSp 100 ng/mL, GW9662- (PPARγ not inhibited), FIG. 8", "description": "In the same manner as “(1) Preparation of test solution” in Example 3, a solution having a concentration of the purified product of 20,000 ng/mL was prepared, and the solution was serially diluted with a culture solution having the following composition, thereby obtaining a total of three test solutions having a concentration of 400 ng/mL, 4,000 ng/mL, and 40000 ng/mL. Since the three test solutions are diluted four-fold when added to the cells, the final concentrations of the purified products are 100 ng/mL, 1,000 ng/mL, and 10,000 ng/mL, respectively.\nThe culture medium was added to cells derived from human peripheral blood monocytes (THP-1, manufactured by DS Pharma Biomedical Co., Ltd.) to prepare solutions in which the concentrations of the cells were 4×10^5 cells/mL. The solutions were seeded in 24 well plates in 500 μL portions, i.e., 2.0×10^5 cells/500 μL/well. After seeding, 250 μL of the culture medium or 250 μL of the culture medium containing 40 μmol/L of GW9662 (manufactured by Wako Pure Chemical Industries, Ltd.) was added to the wells. The GW9662 is an inhibitor of PPARγ (Peroxisome proliferator-activated receptor γ) which is one type of nuclear receptor. After the addition, the mixture was incubated at 37° C. in a 5% CO2 for 1 hour. Thereafter, 250 μl of the test solution was added to each well, and the wells were incubated at 37° C. in a 5% CO2 for 22 hours. After culturing, the culture supernatant of each well was collected in a 2 mL tube. A new 0.5 mL of the culture medium was added to each well, spread over the whole well, and collected in the 2 mL tube. To each empty well was added 0.49 mL of fresh culture medium. The culture solution collected in the 2 mL tube was centrifuged at 1,000 rpm for 5 minutes, the supernatant was removed, and 1 mL of the fresh culture solution was added to suspend, and centrifuged again under the same conditions. After centrifugation, the supernatant was removed and 0.49 mL of culture medium in each well was added to the 2 mL tube, suspended and returned to each well. Then, 250 μL of the culture medium or 250 μL of the culture medium containing 40 μmol/L of the above GW9662 was added to the wells, and the wells were cultured at 37° C. in a 5% CO2 for 1 hour. After the incubation, 250 μL of the culture medium containing LPSp was added to the wells so that the final concentration of the LPSp was 100 ng/mL, and the wells were incubated at 37° C. in a 5% CO2 for 22 hours.\nAfter culturing, the culture supernatants of the wells were collected in tubes, centrifuged, and the supernatants were collected in 1.5-mL tubes. The absorbance was measured using Human IL-6 ELISA MAX Deluxe (Biolegend Corporation), and the concentrations of Interleukin-6 (IL-6) were calculated."}, "[1]": {"tested_on": "Lewis lung carcinoma: 3LL", "test": "Tumor volume in mice bearing Lewis lung carcinoma 3LL (Example 9)", "type": "in vivo, mouse", "conditions": "Example 9-1: ip 0.5 mg/10 mL/kg once, without CY; days 3, 6, 9; FIG. 9", "description": "(1) Preparation of Cancer-Bearing Mice Suspensions of Lewis lung cancer cell lines (Lewis lung carcinoma: 3LL, obtained from JCRB cell banks) were subcutaneously administered to the ventral region of five male C57 BL/6J mice aged 6 weeks so that the cancer cell dose per animal was 2.5×10^5 cells per 200 μL. Two weeks after dosing, tumors were excised from one of the mice and washed on dishes with PBS (−). Next, the washed tumor was made into a finely divided tumor fragment of about 2 mm square, the tumor fragment was transferred to a 50 mL tube, 5 mL of collagenase solution was added, and the mixture was warmed at 37° C. for 10 minutes. Thereafter, the collagenase solution containing the tumor fragments was pipetted into finer tumor fragments, and the collagenase solution containing the tumor fragments was transferred to another 50 mL tube and cooled on ice. After cooling, an additional 5 mL of collagenase solution was added to the collagenase solution containing the tumor fragments, and the same procedure was repeated 5 times until no tumor fragments could be observed. Thereafter, the collagenase solution containing the tumor fragment was filtered through a cell strainer (mesh size: 70 μm, manufactured by BD Corporation), and the filtrate was centrifuged at 1200 rpm for 7 minutes. After centrifugation, the supernatant was removed, 20 ml of […] medium (serum-free) was added to the precipitate, and after suspension by inversion mixing, the precipitate was centrifuged at 1200 rpm for 7 minutes. After centrifugation, the supernatant was removed, and the precipitate was washed twice with PBS (−), and then 10 mL of PBS (−) was added and suspended to prepare a cancer cell suspension. The cancer cell suspension was subcutaneously administered to the ventral portion of the 12 mice so that the cancer cell dose per animal was 2.5×10^5 cells per 200 μL. Fourteen days after dosing, tumors were excised from 10 of the mice and cancer cell suspensions were prepared in the same manner as described above. The cancer cell suspensions were administered intracutaneously into the abdomen of the 108 mice so that the cancer cell dose per animal was 2.5×10^5 cells per 50 μL. After administration, mice were divided into six groups (n=6 in each group) as shown below at the time point when the tumor size of each mouse became about 5 mm in diameter (day 8 after administration). […]\nThe major and minor diameters of the tumors were measured using calipers on Days 3, 6 and 9 on the day of grouping as day 0, and the tumor volume was calculated based on these measurements. […]"}}}
{"compound": "CCCCCC/C=C/CCCCCC(=O)OC(CCCCCCCCCCC)CC(=O)NC1C(OCC2OC(OP(=O)(O)O)C(NC(=O)CC(=O)CCCCCCCCCCC)C(OC(=O)CC(O)CCCCCCC)C2O)OC(COC2(C(=O)O)CC(OC3(C(=O)O)CC(OC4OC(C(=O)O)C(OC5OC(CO)C(O)C(O)C5O)C(O)C4O)C(O)C(C(O)CO)O3)C(OC3OC(CO)C(O)C(O)C3O)C(C(O)CO)O2)C(OP(=O)(O)O)C1OC(=O)CC(O)CCCCCCC", "note": "(centres unmarked) [Formula (A2)]", "values": [{"measurement": "IL-6 concentration in culture supernatant", "setting": "IL-6", "result": "Equivalent results were obtained"}, {"measurement": "tumor volume versus saline group", "setting": "[1]", "result": "equivalent results"}]}
{"compound": "CCCCCC/C=C/CCCCCC(=O)OC(CCCCCCCCCCC)CC(=O)NC1C(OCC2OC(OP(=O)(O)O)C(NC(=O)CC(=O)CCCCCCCCCCC)C(OC(=O)CC(O)CCCCCCC)C2O)OC(COC2(C(=O)O)CC(OC3(C(=O)O)CC(O)C(OC4OC(C(=O)O)C(OC5OC(CO)C(O)C(O)C5O)C(O)C4O)C(C(O)CO)O3)C(OC3OC(COP(=O)(O)O)C(OC4OC(CO)C(O)C(O)C4O)C(O)C3O)C(C(O)CO)O2)C(OP(=O)(O)O)C1OC(=O)CC(O)CCCCCCC", "note": "(centres unmarked) [Formula (B1)]", "values": [{"measurement": "IL-6 concentration in culture supernatant", "setting": "IL-6", "result": "Equivalent results were obtained"}, {"measurement": "tumor volume versus saline group", "setting": "[1]", "result": "equivalent results"}]}
{"compound": "CCCCCC/C=C/CCCCCC(=O)OC(CCCCCCCCCCC)CC(=O)NC1C(OCC2OC(OP(=O)(O)O)C(NC(=O)CC(=O)CCCCCCCCCCC)C(OC(=O)CC(O)CCCCCCC)C2O)OC(COC2(C(=O)O)CC(OC3(C(=O)O)CC(OC4OC(C(=O)O)C(OC5OC(CO)C(O)C(O)C5O)C(O)C4O)C(O)C(C(O)CO)O3)C(OC3OC(COP(=O)(O)O)C(OC4OC(CO)C(O)C(O)C4O)C(O)C3O)C(C(O)CO)O2)C(OP(=O)(O)O)C1OC(=O)CC(O)CCCCCCC", "note": "(centres unmarked) [Formula (A1)]", "values": [{"measurement": "IL-6 concentration in culture supernatant", "setting": "IL-6", "result": "Equivalent results were obtained"}, {"measurement": "tumor volume versus saline group", "setting": "[1]", "result": "equivalent results"}]}
{"compound": "CCCCCC/C=C/CCCCCC(=O)OC(CCCCCCCCCCC)CC(=O)NC1C(OCC2OC(OP(=O)(O)O)C(NC(=O)CC(=O)CCCCCCCCCCC)C(OC(=O)CC(O)CCCCCCC)C2O)OC(COC2(C(=O)O)CC(OC3(C(=O)O)CC(O)C(OC4OC(C(=O)O)C(OC5OC(CO)C(O)C(O)C5O)C(O)C4O)C(C(O)CO)O3)C(OC3OC(CO)C(O)C(O)C3O)C(C(O)CO)O2)C(OP(=O)(O)O)C1OC(=O)CC(O)CCCCCCC", "note": "(centres unmarked) [Formula (B2)]", "values": [{"measurement": "IL-6 concentration in culture supernatant", "setting": "IL-6", "result": "Equivalent results were obtained"}, {"measurement": "tumor volume versus saline group", "setting": "[1]", "result": "equivalent results"}]}
